Source: patent US20240246920A1, “TRIAZOLE DERIVATIVES WITH ANTIFUNGAL ACTIVITY” (King's College London, priority 2020, published 2024)
≈ marks a conversion by molar mass, not a printed value. Like-named read-outs stand apart in the source and are kept apart here.

How the values were obtained:
C. glabrata NCPF8018 = assay: Candida panel MIC, serial dilution in 96-well plates; format: cell-based, Candida glabrata; conditions: Nakaseomyces glabratus
Summary of the method: (§1)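 MIC taken as lowest concentration inhibiting growth ≥50% relative to drug-free control, from OD530 after 24 hours at 37° C. Fungi at 0.5-5×10^5/mL were exposed to serially diluted compound in RPMI 1640/MOPS/2% glucose medium adjusted to pH 7.0.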

C. krusei NCPF3876 = assay: microbe, parasite or virus in culture; format: cell-based, Candida krusei; conditions: Pichia kudriavzevii
Summary of the method: as §1

Candida auris TDG2211 = assay: microbe, parasite or virus in culture; format: cell-based; conditions: Candidozyma auris
Summary of the method: (§2)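 MIC = lowest concentration inhibiting growth ≥50% relative to drug-free control, read by OD530 nm after 24 h at 37° C. Medium: RPMI 1640/MOPS/2% glucose, pH 7.0. Inoculum 0.5-5×10^5/mL.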

C. auris 8971 = assay: Candida panel MIC, serial dilution in 96-well plates; format: cell-based, Candida auris
Summary of the method: as §2

C. auris 8977 = assay: as above; format: cell-based, Candida auris
Summary of the method: as §2

C. auris 8984 = assay: as above; format: cell-based, Candida auris
Summary of the method: as §2

[1] = tested on: C. auris (e.g. TDG1912, TDG2506 or 8984); assay: microbe, parasite or virus in culture; format: cell-based, Candida auris; conditions: Candidozyma auris; efflux pump table; read-out: MIC Fluconazole, C. auris (e.g. TDG1912, TDG2506 or 8984)

With `OC(Cn1cncn1)(Cn1cncn1)c1ccc(F)cc1F` [Fluconazole, fluconazole, reference compound] the MIC (C. glabrata NCPF8018; NCPF8018, read-out: MIC C. Glabrata NCPF8018) was 0.5 to 4 mg/L (≈ 1.63 to 13.1 µM), the MIC (C. glabrata NCPF8018; NCPF8018, read-out: MIC Fluconazole, C. glabrata 8018) was over 128 mg/L and the MIC (C. glabrata NCPF8018; NCPF8018, Table 4, common panel, 24 hours, ≥50% inhibition, read-out: MIC C. glabrata NCPF8018) was 0.5 to 4 mg/L (≈ 1.63 to 13.1 µM). It also gave an MIC (C. krusei NCPF3876; NCPF3876, read-out: MIC C. Krusei NCPF3876) of 0.5 to 8 mg/L (≈ 1.63 to 26.1 µM), an MIC (C. krusei NCPF3876; NCPF3876, read-out: MIC Fluconazole, C. krusei 3876) of 32 mg/L (≈ 104 µM) and an MIC (C. krusei NCPF3876; NCPF3876, Table 4, common panel, 24 hours, ≥50% inhibition, read-out: MIC C. krusei NCPF3876) of 0.5 to 8 mg/L (≈ 1.63 to 26.1 µM). It also gave an MIC (Candida auris TDG2211; TDG2211, read-out: MIC C. auris 2211) of 16 to 128 mg/L (≈ 52.2 to 418 µM), an MIC (Candida auris TDG2211; TDG2211, Table 4, extended panel, 24 hours, ≥50% inhibition, read-out: MIC Candida auris TDG2211) of 64 mg/L (≈ 209 µM) and an MIC (C. auris 8971; Candidozyma auris, 8971, 24 h, read-out: MIC C. auris 8971) of 16 mg/L (≈ 52.2 µM). For the same compound, the MIC (C. auris 8971; Candidozyma auris, 8971, read-out: MIC C. auris 8971) was 32 mg/L (≈ 104 µM), the MIC (C. auris 8977; Candidozyma auris, 8977, 24 h, read-out: MIC C. auris 8977) was 32 mg/L (≈ 104 µM) and the MIC (C. auris 8977; Candidozyma auris, 8977, read-out: MIC C. auris 8977) was 16 mg/L (≈ 52.2 µM). It also gave an MIC (C. auris 8984; Candidozyma auris, 8984, 24 h, read-out: MIC C. auris 8984) of over 128 mg/L, an MIC (C. auris 8984; Candidozyma auris, 8984, read-out: MIC C. auris 8984) of over 128 mg/L and an MIC [1] of over 128 mg/L.
